US20050222146A1, “N-substituted-n-sulfonylaminocyclopropane compounds and pharmaceutical use thereof” (priority 2003, published 2005)

Key:
aggrecanase-1 = biological target: T1, aggrecanase-1 (Homo sapiens, UniProt O75173); assay: Aggrecanase-1 inhibitory action, Particle Assay (GAG release from aggrecan-containing polyacrylamide particles); format: biochemical; conditions: 37° C. for 15 hr, read-out: Experimental Example 1 IC50 AG1
T1 sequence (O75173 213-837): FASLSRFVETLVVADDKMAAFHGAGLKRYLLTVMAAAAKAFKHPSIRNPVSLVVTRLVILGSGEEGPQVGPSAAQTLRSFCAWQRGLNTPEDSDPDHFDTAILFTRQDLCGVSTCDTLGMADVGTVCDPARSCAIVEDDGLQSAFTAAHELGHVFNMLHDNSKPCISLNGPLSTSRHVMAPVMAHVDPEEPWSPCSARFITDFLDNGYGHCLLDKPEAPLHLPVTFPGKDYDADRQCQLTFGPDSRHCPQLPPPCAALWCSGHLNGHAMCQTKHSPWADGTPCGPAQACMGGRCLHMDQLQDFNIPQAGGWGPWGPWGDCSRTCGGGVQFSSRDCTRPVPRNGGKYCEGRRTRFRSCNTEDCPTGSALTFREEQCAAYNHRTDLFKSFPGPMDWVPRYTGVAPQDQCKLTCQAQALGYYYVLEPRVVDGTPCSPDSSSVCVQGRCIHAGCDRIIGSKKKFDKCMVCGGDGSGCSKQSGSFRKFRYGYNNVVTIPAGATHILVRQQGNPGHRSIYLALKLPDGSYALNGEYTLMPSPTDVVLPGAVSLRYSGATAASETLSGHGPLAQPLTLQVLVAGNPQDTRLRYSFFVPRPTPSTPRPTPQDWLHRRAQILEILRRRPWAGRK
Experimental: Aggrecanase-1 Inhibitory Action
Particle Assay was used for determination of aggrecanase activity.
(§1) The enzyme and substrate were diluted with Tris-HCl buffer, and test compounds were diluted with dimethyl sulfoxide (DMSO).
Test compounds and the enzyme were added into 96-well plate, and polyacrylamide particles containing aggrecan were added as a substrate and the mixture was incubated at 37° C. for 15 hr.
After incubation; the supernatant was transferred to another plate, and mixed with 1,9-dimethylmethylene blue. The absorbance at 595 nm was measured to quantify the amount of glycosaminoglycan (GAG) released in the reaction supernatant. Whale chondroitin sulfate was used as the standard of GAG. The inhibitory activity of the compound in each well (%) was calculated based on the values of enzyme-free well and inhibitor-free well. The inhibitory activity of the compound was represented as IC50 (μM).

MMP-1 = biological target: T2, MMP-1 (Homo sapiens, UniProt P03956); assay: MMP-1 inhibitory action, Type I collagen Activity Measurement kit (FITC-labeled collagen type I); format: biochemical; conditions: 37° C. for 3 hr, read-out: Experimental Example 2 IC50 MMP1
T2 sequence (P03956 100-469): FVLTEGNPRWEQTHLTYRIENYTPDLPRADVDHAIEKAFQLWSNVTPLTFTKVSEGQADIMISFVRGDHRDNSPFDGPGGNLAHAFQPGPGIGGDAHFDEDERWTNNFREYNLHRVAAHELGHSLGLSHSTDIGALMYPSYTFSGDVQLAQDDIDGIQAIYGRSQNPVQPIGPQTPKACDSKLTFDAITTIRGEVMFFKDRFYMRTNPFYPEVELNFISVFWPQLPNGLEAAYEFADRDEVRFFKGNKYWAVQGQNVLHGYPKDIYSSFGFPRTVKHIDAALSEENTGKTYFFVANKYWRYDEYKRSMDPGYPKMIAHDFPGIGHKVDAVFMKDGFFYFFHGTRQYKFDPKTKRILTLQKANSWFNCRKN
Experimental: For MMP-1 Assay, Type I collagen Activity Measurement kit (YAGAI YU-72013) modified to a 96-well plate format was used.
The principle of the kit is based on the property of collagen that becomes soluble in ethanol after being cleaved by MMP-1.
as §1
The enzyme and test compounds were added into 96-well plate, and fluorescein isothiocianate (FITC)-labeled collagen type I was added as a substrate and the mixture was incubated at 37° C. for 3 hr.
The reaction was terminated by addition of Tris-HCl buffer containing ethanol. After centrifugation, the supernatant containing denatured substrate was transferred to another 96-well plate. The collagenase activity of MMP-1 was determined by measuring FITC fluorescence intensity (excitation wavelength 485 nm, emission wavelength 530 nm) of each well. The inhibitory activity of the compound in each well (%) was calculated based on the values of enzyme-free well and inhibitor-free well. The inhibitory activity of the compound was represented as IC50 (μM).

| IC50 (aggrecanase-1) | IC50 (MMP-1) | SMILES |
| --- | --- | --- |
| < 1 µM | ≥ 10 µM | O=C(O)[C@@]1(N(CCNS(=O)(=O)C(F)(F)F)S(=O)(=O)c2ccc(-c3ccc(Cl)cc3)cc2)C[C@H]1c1cccc(NCCN2CCCCC2)c1 (relative stereo) [Example 1-89, (1R*,2S*)-1-[(4′-chloro-biphenyl-4-sulfonyl)-(2-trifluoromethanesulfonylamino-ethyl)-amino]-2-[3-(2-piperidin-1-yl-ethylamino)-phenyl]-cyclopropanecarboxylic acid] |
| < 1 µM | ≥ 10 µM | O=C(O)c1cccc(CN([C@]2(C(=O)O)C[C@H]2c2cccc(NCCN3CCCCC3)c2)S(=O)(=O)c2ccc(-c3ccc(Cl)cc3)cc2)c1 (relative stereo) [Example 1-91, 3-{[{(1R*,2S*)-1-carboxy-2-[3-(2-piperidin-1-yl-ethylamino)-phenyl]-cyclopropyl}-(4′-chloro-biphenyl-4-sulfonyl)-amino]-methyl}-benzoic acid] |
| < 1 µM | ≥ 10 µM | CN([C@]1(C(=O)O)C[C@H]1c1cccc(Oc2ccccc2)c1)S(=O)(=O)c1ccc(-c2ccc(Cl)cc2)cc1 (relative stereo) [Example 1-53, (1R*,2S*)-1-[(4′-chloro-biphenyl-4-sulfonyl)-methyl-amino]-2-(3-phenoxy-phenyl)-cyclopropanecarboxylic acid] |
| < 1 µM | ≥ 10 µM | O=C(O)[C@@]1(N(CCCNc2nn[nH]n2)S(=O)(=O)c2ccc(-c3ccc(Cl)cc3)cc2)C[C@H]1c1ccccc1 (relative stereo) [Example 1-110, (1R*,2S*)-1-{(4′-chloro-biphenyl-4-sulfonyl)-[3-(2H-tetrazol-5-ylamino)-propyl]-amino}-2-phenyl-cyclopropanecarboxylic acid] |
| < 0.1 µM | ≥ 10 µM | O=C(O)c1cn(CCN(C2(C(=O)O)CC2c2ccccc2)S(=O)(=O)c2ccc(-c3ccc(Cl)cc3)cc2)cn1 (stereo not drawn) [Example 1-104, 1-{2-[(1R*,2S*)-1-carboxy-2-phenyl-cyclopropyl)-(4′-chloro-biphenyl-4-sulfonyl)-amino]-ethyl}-1H-imidazole-4-carboxylic acid] |
| < 1 µM | ≥ 10 µM | COC(=O)CN([C@]1(C(=O)O)C[C@H]1c1ccccc1)S(=O)(=O)c1ccc(-c2ccc(Cl)cc2)cc1 (relative stereo) [Example 1-46, (1R*,2S*)-1-[(4′-chloro-biphenyl-4-sulfonyl)-methoxycarbonylmethyl-amino]-2-phenyl-cyclopropanecarboxylic acid] |
| < 1 µM | ≥ 10 µM | CCOC(=O)CN([C@]1(C(=O)O)C[C@H]1c1cccc(Oc2ccccc2)c1)S(=O)(=O)c1ccc(-c2ccc(Cl)cc2)cc1 (relative stereo) [Example 1-52, (1R*,2S*)-1-[(4′-chloro-biphenyl-4-sulfonyl)-ethoxycarbonylmethyl-amino]-2-(3-phenoxy-phenyl)-cyclopropanecarboxylic acid] |
| < 1 µM | ≥ 10 µM | O=C(O)[C@@]1(N(CCNS(=O)(=O)C(F)(F)F)S(=O)(=O)c2ccc(-c3ccc(Cl)cc3)cc2)C[C@H]1c1cccc(Oc2ccccc2)c1 (relative stereo) [Example 1-81, (1R*,2S*)-1-[(4′-chloro-biphenyl-4-sulfonyl)-(2-trifluoromethanesulfonylamino-ethyl)-amino]-2-(3-phenoxy-phenyl)-cyclopropanecarboxylic acid] |
| < 1 µM | ≥ 10 µM | O=C(O)c1cccn1CCN([C@]1(C(=O)O)C[C@H]1c1ccccc1)S(=O)(=O)c1ccc(-c2ccc(Cl)cc2)cc1 (relative stereo) [Example 1-69, 1-{2-[((1R*,2S*)-1-carboxy-2-phenyl-cyclopropyl)-(4′-chloro-biphenyl-4-sulfonyl)-amino]-ethyl}-1H-pyrrole-2-carboxylic acid] |

Continued, compound first:

| SMILES | IC50 (aggrecanase-1) | IC50 (MMP-1) |
| --- | --- | --- |
| O=C(O)CN([C@]1(C(=O)O)C[C@H]1c1cccc(OCc2ccccc2)c1)S(=O)(=O)c1ccc(-c2ccc(Cl)cc2)cc1 (relative stereo) [Example 1-39, (1R*,2S*)-2-(3-benzyloxy-phenyl)-1-[carboxymethyl-(4′-chloro-biphenyl-4-sulfonyl)-amino]-cyclopropanecarboxylic acid] | < 0.1 µM | ≥ 10 µM |
| O=C(O)CN([C@]1(C(=O)O)C[C@H]1c1ccccc1OCc1ccccc1)S(=O)(=O)c1ccc(-c2ccc(Cl)cc2)cc1 (relative stereo) [Example 1-40, (1R*,2S*)-2-(2-benzyloxy-phenyl)-1-[carboxymethyl-(4′-chloro-biphenyl-4-sulfonyl)-amino]-cyclopropanecarboxylic acid] | < 0.1 µM | ≥ 10 µM |
| O=C(O)CN([C@]1(C(=O)O)C[C@H]1c1ccc(-c2ccccc2)cc1)S(=O)(=O)c1ccc(-c2ccc(Cl)cc2)cc1 (relative stereo) [Example 1-32, (1R*,2S*)-2-biphenyl-4-yl-1-[carboxymethyl-(4′-chloro-biphenyl-4-sulfonyl)-amino]-cyclopropanecarboxylic acid] | < 1 µM | ≥ 10 µM |
| CC(C)(C)OC(=O)NCCN([C@]1(C(=O)O)C[C@H]1c1ccccc1)S(=O)(=O)c1ccc(-c2ccc(Cl)cc2)cc1 (relative stereo) [Example 1-4, (1R*,2S*)-1-[(2-tert-butoxycarbonylamino-ethyl)-(4′-chloro-biphenyl-4-sulfonyl)-amino]-2-phenyl-cyclopropanecarboxylic acid] | < 1 µM | ≥ 10 µM |
| O=C(O)[C@@]1(N(Cc2cc(=O)[nH][nH]2)S(=O)(=O)c2ccc(-c3ccc(Cl)cc3)cc2)C[C@H]1c1ccccc1 (relative stereo) [Example 1-5, (1R*,2S*)-1-[(4′-chloro-biphenyl-4-sulfonyl)-(5-oxo-2,5-dihydro-1H-pyrazol-3-ylmethyl)-amino]-2-phenyl-cyclopropanecarboxylic acid] | < 1 µM | ≥ 10 µM |
| N#Cc1cccc([C@@H]2C[C@@]2(C(=O)O)N(CC(=O)O)S(=O)(=O)c2ccc(-c3ccc(Cl)cc3)cc2)c1 (relative stereo) [Example 1-27, (1R*,2S*)-1-[carboxymethyl-(4′-chloro-biphenyl-4-sulfonyl)-amino]-2-(3-cyano-phenyl)-cyclopropanecarboxylic acid] | < 0.1 µM | ≥ 10 µM |
| O=C(O)CN([C@]1(C(=O)O)C[C@H]1c1ccccc1C(F)(F)F)S(=O)(=O)c1ccc(-c2ccc(Cl)cc2)cc1 (relative stereo) [Example 1-33, (1R*,2S*)-1-[carboxymethyl-(4′-chloro-biphenyl-4-sulfonyl)-amino]-2-(2-trifluoromethyl-phenyl)-cyclopropanecarboxylic acid] | < 1 µM | ≥ 10 µM |
| O=C(O)CN(C1(C(=O)O)C[C@H]1Cc1ccccc1)S(=O)(=O)c1ccc(-c2ccc(Cl)cc2)cc1 (stereo in doubt) [Example 1-3, (1S,2R)-2-benzyl-1-[carboxymethyl-(4′-chloro-biphenyl-4-sulfonyl)-amino]-cyclopropanecarboxylic acid] | < 1 µM | ≥ 10 µM |
| CS(=O)(=O)NCCN([C@]1(C(=O)O)C[C@H]1c1ccccc1)S(=O)(=O)c1ccc(-c2ccc(Cl)cc2)cc1 (relative stereo) [Example 1-7, (1R*,2S*)-1-[(4′-chloro-biphenyl-4-sulfonyl)-(2-methanesulfonylamino-ethyl)-amino]-2-phenyl-cyclopropanecarboxylic acid] | < 1 µM | ≥ 10 µM |
